Assay results as given in US12390447B2, “Sirtuin 6 protein deacylase (SIRT6) activators” (Wisconsin Alumni Research Foundation, priority 2019, dated 2025).

Assays:
[1] = Micelle formation with fluorescent membrane probe diphenylhexatriene (DPH); type: physicochemical
SIRT2 = molecular target: T1, SIRT2 (Homo sapiens, UniProt Q8IXJ6); experiment: SIRT2 deacetylase activity against H3K9ac peptide; type: biochemical
T1 sequence (Q8IXJ6 1-389): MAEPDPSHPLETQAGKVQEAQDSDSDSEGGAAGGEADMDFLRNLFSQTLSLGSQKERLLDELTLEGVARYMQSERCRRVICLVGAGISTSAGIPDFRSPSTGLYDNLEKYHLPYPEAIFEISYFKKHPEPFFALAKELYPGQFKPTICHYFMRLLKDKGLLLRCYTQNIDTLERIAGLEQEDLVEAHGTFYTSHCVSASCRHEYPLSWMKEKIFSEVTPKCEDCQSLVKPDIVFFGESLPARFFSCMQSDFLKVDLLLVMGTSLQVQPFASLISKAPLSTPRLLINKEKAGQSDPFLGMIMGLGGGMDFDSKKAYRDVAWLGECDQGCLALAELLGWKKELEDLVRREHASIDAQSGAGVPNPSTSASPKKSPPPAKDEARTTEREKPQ
Protocol: FIGS. 1A-F illustrate the identification of novel SIRT6 activators. (1A) Compound libraries BML-2803, BML-2800, and an additional set of 178 molecules were screened at 100 μM for their ability to stimulate SIRT6 (1 μM) deacetylation of H3K9ac peptide (20 μM) in the presence of 0.5 mM NAD^+. SIRT6 activity was measured by HPLC quantification of H3K9ac and deacetylated product (inset) and fold activations relative to DMSO control were determined and compiled. (1B) Fold-activation of SIRT6 (1 μM) determined in the presence of either 0-400 μM CL4, 0-150 μM TTNPB, 0-100 μM Lysophosphatidic acid (LPA), or 0-200 μM linoleoylglycine (LGly). Maximum fold-activation and EC50 determined by sigmoidal curve fit. […] Constants Km, H3K9ac and kcat were determined by fitting data to Michaelis-Menten equation. (1D) Fold-activations of SIRT1 (0.1 μM), SIRT2 (0.2 μM), SIRT3 (1 μM), SIRT5 (2 μM), and SIRT6 (1 μM) determined in the presence of CL4 (100 μM), TTNPB (50 μM), and LPA (50 μM) relative to DMSO control against 20 μM H3K9ac peptide and 0.5 mM NAD^+. […]
All sirtuin deacylation assays were carried out at 37° C. in 20 mM potassium phosphate pH 7.5 with 0.5 mM NAD^+, 10% DMSO, and 20 μM H3K9ac or H3K9myr peptides, unless otherwise noted in legend, and quenched by the addition of 2% TFA final. […] The product and substrate peaks were quantified and ratio of these allowed for quantification of product formation. […]

SIRT6 = SIRT6 (Homo sapiens, UniProt Q8N6T7); experiment: SIRT6 deacetylation of H3K9ac peptide, fold-activation versus activator concentration; type: biochemical; conditions: for EC50: H3K9ac peptide 20 μM
Protocol: (1A) Compound libraries BML-2803, BML-2800, and an additional set of 178 molecules were screened at 100 μM for their ability to stimulate SIRT6 (1 μM) deacetylation of H3K9ac peptide (20 μM) in the presence of 0.5 mM NAD^+. SIRT6 activity was measured by HPLC quantification of H3K9ac and deacetylated product (inset) and fold activations relative to DMSO control were determined and compiled. (1B) Fold-activation of SIRT6 (1 μM) determined in the presence of either 0-400 μM CL4, 0-150 μM TTNPB, 0-100 μM Lysophosphatidic acid (LPA), or 0-200 μM linoleoylglycine (LGly). Maximum fold-activation and EC50 determined by sigmoidal curve fit. (1C) Steady-state kinetic analysis of SIRT6 (1 μM) deacetylation was conducted with 0-250 μM H3K9ac peptide in the presence of 100 μM CL4, 50 μM TTNPB, 50 μM LPA, or 50 μM LGly. Constants Km, H3K9ac and kcat were determined by fitting data to Michaelis-Menten equation. (1D) Fold-activations of SIRT1 (0.1 μM), SIRT2 (0.2 μM), SIRT3 (1 μM), SIRT5 (2 μM), and SIRT6 (1 μM) determined in the presence of CL4 (100 μM), TTNPB (50 μM), and LPA (50 μM) relative to DMSO control against 20 μM H3K9ac peptide and 0.5 mM NAD^+. Mean values reported with error bars representing standard deviation of at least three replicates.
All sirtuin deacylation assays were carried out at 37° C. in 20 mM potassium phosphate pH 7.5 with 0.5 mM NAD^+, 10% DMSO, and 20 μM H3K9ac or H3K9myr peptides, unless otherwise noted in legend, and quenched by the addition of 2% TFA final. Steady-state reactions were constrained to less than 20% substrate turnover to prevent product inhibition. A variety of times were required to monitor SIRT6 deacetylation (2-60 minutes) under this restraint given the ability to strongly activate catalysis. In these cases, specific activities were determined and either reported as is or as fold-activation of specific activity. Deacylation reactions were analyzed by reversed phase high-performance liquid chromatography on a Kinetex C18 column (100 Å, 100×4.6 mm, 2.6 μm, Phenomenex) by monitoring the formation of the deacylated product at 214 nm. Deacetylation reactions were analyzed using a gradient of 33-100% B (30% acetonitrile with 0.05% TFA) in 8 min at 1.6 mL min^−1. Demyristoylation reactions were analyzed using a gradient of 3 to 100% B (acetonitrile with 0.05% TFA) in 10 min at 1.6 mL min^−1. The product and substrate peaks were quantified and ratio of these allowed for quantification of product formation. […]

[2] = SIRT6 1 μM, 0.5 mM NAD+, sigmoidal curve fit

Sequence of SIRT6 (Q8N6T7 whole entry): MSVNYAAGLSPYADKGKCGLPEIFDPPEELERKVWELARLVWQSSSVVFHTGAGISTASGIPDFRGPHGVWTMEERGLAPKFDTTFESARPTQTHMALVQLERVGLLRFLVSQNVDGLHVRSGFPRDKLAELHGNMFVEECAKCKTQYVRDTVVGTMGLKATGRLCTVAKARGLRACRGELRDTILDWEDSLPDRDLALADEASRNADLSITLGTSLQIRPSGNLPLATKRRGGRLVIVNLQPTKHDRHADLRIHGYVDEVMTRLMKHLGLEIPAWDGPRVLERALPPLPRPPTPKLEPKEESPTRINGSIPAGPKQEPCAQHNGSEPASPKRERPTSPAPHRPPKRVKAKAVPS

SMILES | micelle formation (in words) [1] | specificity for SIRT6 over SIRT2 (SIRT2; CL4 100 μM, TTNPB 50 μM, LPA 50 μM) | concentration required to stimulate 4-fold activation of SIRT6 (SIRT6; SIRT6 1 μM, H3K9ac 20 μM, 0.5 mM NAD+) [µM] | EC50 (SIRT6; [2]) [µM] | concentration at which micelle formation was observed [1] [µM] | FAmax (maximum fold-activation) (SIRT6; SIRT6 1 μM, sigmoidal curve fit) [fold] | SIRT2 deacetylase activity at high activator concentration (SIRT2; 400 μM compound) | SIRT6 deacetylase activity at high activator concentration (SIRT6; 400 μM compound) | increased potency over CL-4 (SIRT6; by concentration required for 4-fold activation of SIRT6 deacetylase activity) [fold]
O=C(O)c1ccc2c(c1)C(=O)N(c1ccc(NC(=O)c3ccc(Cl)cc3Cl)c(Cl)c1)C2=O [CL-4, 2-(3-chloro-4-(2,4-dichlorobenzamido)phenyl)-1,3-dioxoisoindoline-5-carboxylic acid] | not observed to form micelles | greater than 19 fold | 35 | 97 ± 2 |  |  |  |  | 
CCCCC/C=C\C/C=C\CCCCCCCC(=O)NCC(=O)O [N-Linoleoylglycine, linoleoyl-glycine, reference compound] |  |  |  | 88 ± 4 | > 300 | 17 ± 0.8 |  |  | 
O=C(O)c1ccc2c(c1)C(=O)N(c1ccc(N(C(=O)c3c(Cl)cc(Cl)cc3Cl)C(=O)c3c(Cl)cc(Cl)cc3Cl)c(Cl)c1)C2=O [CL-5D, 2-(3-chloro-4-(2,4,6-trichloro-N-(2,4,6-trichlorobenzoyl)benzamido)phenyl)-1,3-dioxoisoindoline-5-carboxylic acid] |  |  |  |  |  |  | inhibited | inhibited | 7
